Reference: paper PMC12135709, “Discovery of the First Selective and Potent PROTAC Degrader for the Pseudokinase TRIB2” (European journal of medicinal chemistry, 2024)

Target: T1, TRIB2 (Homo sapiens, UniProt Q92519)
T1 sequence (Q92519 1-343): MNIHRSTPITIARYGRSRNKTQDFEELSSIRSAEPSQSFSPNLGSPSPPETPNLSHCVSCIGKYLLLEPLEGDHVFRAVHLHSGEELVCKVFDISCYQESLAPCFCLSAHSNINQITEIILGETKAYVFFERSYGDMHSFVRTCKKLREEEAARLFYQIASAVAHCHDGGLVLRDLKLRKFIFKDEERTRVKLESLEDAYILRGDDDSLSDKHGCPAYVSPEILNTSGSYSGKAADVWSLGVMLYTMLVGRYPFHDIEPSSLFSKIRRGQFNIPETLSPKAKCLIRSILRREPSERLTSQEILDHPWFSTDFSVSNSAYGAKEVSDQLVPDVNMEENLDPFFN
Assay: radiometric […]-ATP kinase assay with recombinant human TRIB2; supported by CETSA in PC3 cells
Assay type: biochemical

IC50 [nM]	SMILES
65.2	O=C1CCC(N2C(=O)c3ccc(NCCCCCCCCCC(=O)N4CCc5ccc(NC(=O)c6n[nH]c7ccc(-c8cccnc8F)cc67)cc5C4)cc3C2=O)C(=O)N1 (centres unmarked) [5k, N-(2-(10-((2-(2,6-dioxopiperidin-3-yl)-1,3-dioxoisoindolin-5-yl)amino)-decanoyl)-1,2,3,4-tetrahydroisoquinolin-7-yl)-5-(2-fluoropyridin-3-yl)-1H-indazole-3-carboxamide]
0.74	O=C(Nc1ccc2c(c1)CNCC2)c1n[nH]c2ccc(-c3cccnc3F)cc12 [compound 1, 5-(2-fluoropyridin-3-yl)-N-(1,2,3,4-tetrahydroisoquinolin-7-yl)-1H-indazole-3-carboxamide]
